According to US20120208776A1 (priority 2002, published 2012):
In brackets after ≈: the same amount, converted by molar mass. Several values for one entry are separate records, joined by “and”; a condition that tells them apart may be missing. Equal values may be shown once. Read-outs that look alike come from different tables or passages of the source. Marks after values point to notes of the source that are not given here.

How the values were obtained:
NF-κB promoter = assay: NF-κB reporter assay (luciferase); assay type: cell-based, human; conditions: MDA-MB-453, 24 h
Experimental: The cyclin D1 promoter luciferase reporter plasmid, 1745CD1LUC, was prepared by Dr. R. Pestell (Albert Einstein Cancer Center, New York, N.Y.). The method used for transient transfection reporter assays was previously described (Soh et al., Novel roles of specific isoforms of protein kinase C in activation of the c-fos serum response element. Molecular and Cellular Biology, 19:1313-24, 1999). Using lipofectin, triplicate samples of MDA-MB-453 breast cancer cells (1×10^5 cells in 35-mm plates) were co-transfected using DNA of the indicated reporter plasmid (1 μg) and the β-gal plasmid as an internal control (10 μg of the pCMV-b-gal plasmid) in opti-MEM 1 medium (Life Technologies, Inc.). After 24 h, the medium was replaced with serum-free medium containing the indicated concentrations of actein. After 24 h, cells were harvested, and luciferase activity was determined with the luciferase assay system (Promega Corp. Madison, Wis.); β-gal activities were determined with the β-gal enzyme assay system (Promega). Luciferase activities were normalized to β-gal activities, to correct for differences in transfection efficiency.
NF-κB reporter assay. The NE-κB promoter luciferase reporter plasmid was from Dr. Jae Won Soh. The method for transient transfection reporter assays was as previously described.

[1] = system: cyclin D1 mRNA in MCF7 cells; assay: RT-PCR of mRNA; assay type: cell-based, human
Experimental: FIG. 13 illustrates the effects of actein on cyclin D1 mRNA in MCF7 cells (RT-PCR). MCF7 cells were treated with DMSO or actein for 3, 10, or 24 h. RNA was isolated and analyzed by RT-PCR, using primers for cyclin D1 and actin (control). The staining intensities of the visualized blots were quantified using NIH image software. The relative band intensities were determined by comparing treated samples with untreated controls. These values were then normalized (fold), using β-actin as an internal control.

MCF7 cells [2] = assay: Cell proliferation, cell count (Coulter Counter); assay type: cell-based, human; conditions: for IC50: Homo sapiens, MCF7 cells, read-out: IC50
MCF7 cells [3] = assay: Western-blot analysis; assay type: cell-based, human
Experimental: Cells were treated for increasing times with approximately the IC50 concentration, or twice the IC50 concentration, of actein. The cells were harvested, washed with PBS, and sonicated in extraction buffer according to the procedure of Han et al. (Han et al., Stable overexpression of cyclin D1 in a human mammary epithelial cell line prolongs the S-phase, and inhibits growth. Oncogene, 10:953-61, 1995). The lysates were subjected to electrophoresis on a 10% or 12.5% SDS-polyacrylamide gel, and then transferred to a polyvinylidene difluoride (PVDF) membrane. The membrane was blocked with milk protein, and incubated with a solution containing the primary antibody against the following: cyclin D1 (Upstate Biotechnology, Lake Placid, N.Y.), p21^cip1 (Oncogene Research Products, Darmstadt, Germany), ppRb (ser 780, Medical and Biological Laboratories, Nagoya, Japan), cdk4 (Upstate Biotechnology, Lake Placid, N.Y.), EGFR (clone-74, Transduction Laboratories, Lexington, Ky.), p-EGFR (phospho (Y1173)-EGFR) (Cell Signaling, Beverly, Mass.), actin (Sigma, St. Louis, Mo.), Her-2/neu (Cell Signaling, Beverly, Mass.), or phospho-(Y1248)-Her-2/neu (Cell Signaling, Beverly, Mass.)), IκB (Sant Cruz Biotechnolgy, Santa Cruz, Calif.), IκκB (Sigma, St. Louis, Mo.) and PPARγ (Santa Cruz biotechnology, Santa Cruz, Calif.) (Masuda et al., Epigallocatechin-3-gallate inhibits activation of HER-2/neu and downstream signaling pathways in human head and neck and breast carcinoma cells. Clin. Cancer Res., 9: 3486-91, 2003). The membrane was washed, and incubated with horseradish peroxidase conjugated secondary antibody.
Protein bands were visualized with the ECL-enhanced chemiluminescence system, according to the manufacturer's directions (Amersham Pharmacia Biotech) (Sgambato et al., Overexpression of p27 (Kip1) inhibits the growth of both normal and transformed human mammary epithelial cells. Cancer Research, 58:3448-54, 1998). The staining intensities of the visualized blots were quantified using NIH image software. For each protein, the relative band intensities were determined by comparing treated samples with untreated controls. These values were then normalized, using β-actin as an internal control.

[4] = system: rat liver gene expression
[5] = system: MCF10F normal mammary epithelial cells; assay: Cell proliferation, cell count (Coulter Counter); assay type: cell-based, human; conditions: 96 h
[6] = heart failure; cited from earlier work
[7] = rat liver, actein 35.7 mg/kg, 6 hours, vs control
[8] = rat liver, actein 35.7 mg/kg, 24 hours, vs control

## CC(=O)O[C@@H]1C[C@@]23C[C@@]24CC[C@H](O[C@@H]2OC[C@@H](O)[C@H](O)[C@H]2O)C(C)(C)[C@@H]4CC[C@H]3[C@]2(C)C[C@@H]3O[C@]4(C[C@@H](C)[C@@H]3[C@@]12C)O[C@H](O)[C@@]1(C)O[C@@H]41 [actein]
NF-κB promoter; 20 μg/ml
  NF-kB promoter activity: 1.59 fold
NF-κB promoter; 40 μg/ml
  NF-kB promoter activity: 0.12 fold
[1]; 3 h, 20 μg/ml
  cyclin D1 mRNA (RT-PCR): 0.91 fold
[1]; 3 h, 40 μg/ml
  cyclin D1 mRNA (RT-PCR): 0.94 fold
[1]; 10 h, 20 μg/ml
  cyclin D1 mRNA (RT-PCR): 1.1 fold
[1]; 10 h, 40 μg/ml
  cyclin D1 mRNA (RT-PCR): 0.93 fold
[1]; 24 h, 20 μg/ml
  cyclin D1 mRNA (RT-PCR): 0.84 fold
[1]; 24 h, 40 μg/ml
  cyclin D1 mRNA (RT-PCR): 0.66 fold
MCF7 cells [2]; 96 h
  IC50: 14 µg/mL
MCF7 cells [2]; 96 h, value in parentheses
  IC50: 21 µM
MCF7 cells [2]; MCF7, 20 μg/ml, 96 h
  cells alive: 38.0%±3.0
MCF7 cells [2]; MCF7 growth inhibition
  potency relative to 23-epi-26-deoxyactein or cimifugoside: approximately 1.5 fold
  potency relative to cimiracemoside A: approximately 3 times
MCF7 cells [3]; 40 μg/ml, 24 h
  cellular level of cyclin D1: almost a complete loss
MCF7 cells [3]; 20 or 40 μg/ml
  level of EGFR: not significantly affected
MCF7 cells [3]; 3 h, 20 μg/ml
  p21cip1 band intensity relative to β-actin: 1.47 fold
  ppRb band intensity relative to β-actin: 1.51 fold
MCF7 cells [3]; 3 h, 40 μg/ml
  p21cip1 band intensity relative to β-actin: 1.17 fold and 1 fold
  ppRb band intensity relative to β-actin: 1.59 fold
MCF7 cells [3]; 10 h, 20 μg/ml
  p21cip1 band intensity relative to β-actin: 1.75 fold
  ppRb band intensity relative to β-actin: 0.61 fold
MCF7 cells [3]; 10 h, 40 μg/ml
  p21cip1 band intensity relative to β-actin: 1.37 fold
  ppRb band intensity relative to β-actin: 0.64 fold
MCF7 cells [3]; 24 h, 20 μg/ml
  p21cip1 band intensity relative to β-actin: 0.94 fold
  ppRb band intensity relative to β-actin: 0.80 fold and 0.8 fold
MCF7 cells [3]; 24 h, 40 μg/ml
  p21cip1 band intensity relative to β-actin: 0.78 fold
  ppRb band intensity relative to β-actin: 0.43 fold
[4]; actein 35.7 mg/kg, 6 hours
  ATP synthase expression, fold-change (log): −0.05
  number of genes with significant change (p<0.05) in transcription level: 297
[4]; actein 35.7 mg/kg, 6 hours, rat liver
  erythropoietin expression, fold-change (log): −0.22
[4]; actein 35.7 mg/kg, 24 hours
  C4BP expression, fold-change (log): 0.17
  CXCL1 expression, fold-change (log): 0.44
  FDPS expression, fold-change (log): 0.34
  HMGCS expression, fold-change (log): 0.36
  IPP expression, fold-change (log): 0.80
  S100A9 expression, fold-change (log): 0.79
  SCD1 expression, fold-change (log): −1.28
  number of genes with significant change (p<0.05) in transcription level: 1335
[4]; female, Sprague-Dawley, rat, in vivo, 6 h
  PPS, Hepatic inflammatory infiltrate, centrilobular signature: 0.58
[4]; female, Sprague-Dawley, rat, in vivo, 24 h
  PPS, Hepatic inflammatory infiltrate, early gene expression signature: 0.56
[4]; [7]
  Fold-change (log) ATP5I (1387019_at): −0.05*
  Fold-change (log) EPO (1387308_at): −0.22^†
[4]; [8]
  Fold-change (log) ACOX1 (1367680_at): −0.17*
  Fold-change (log) C4BP, Complement component 4 binding protein, alpha (1369764_at): 0.09*
  Fold-change (log) C4BP, Complement component 4 binding protein, beta (1368695_at): 0.17*
  Fold-change (log) C5 (1383425_at): 0.18*
  Fold-change (log) CD44 (1387952_a_at): 0.08*
  Fold-change (log) CXCL1 (1387316_at): 0.44*
  Fold-change (log) FDPS (1367667_at): 0.34*
  Fold-change (log) HMGCS1 (1367932_at): 0.36^†
  Fold-change (log) IPP (1388872_at): 0.80*
  Fold-change (log) MG3PDH (1387670_at): −0.38*
  Fold-change (log) S100A9 (1387125_at): 0.79*
  Fold-change (log) SAP (1367804_at): −0.04*
  Fold-change (log) SCD1 (1370355_at): −1.28*
[5]; Homo sapiens, MCF-10F, MCF10F cells
  IC50: 42 µg/mL (≈ 62.1 µM)
[5]; MCF10F, 20 μg/ml
  cells alive: 63.8%±1.4

## C[C@H]1O[C@@H](O[C@H]2[C@@H](O)C[C@H](O[C@H]3[C@@H](O)C[C@H](O[C@H]4CC[C@@]5(C)[C@H](CC[C@@H]6[C@@H]5CC[C@]5(C)[C@@H](C7=CC(=O)OC7)CC[C@]65O)C4)O[C@@H]3C)O[C@@H]2C)C[C@H](O)[C@@H]1O [digitoxin]
[6]
  therapeutic plasma concentration: greater than 10 ng/ml and > 13 nM
